# Reference: patent publication US20100255580A1, “Differentiation of Human Embryonic Stem Cells” (LIFESCCAN, INC., priority 2007, published 2010)
# Tested on: H9 embryonic stem cells
# Type: cell-based, human
# Details: low serum
# Procedure: Controls for each group included cells plated on […]-coated dishes and cultured in MEF-conditioned medium or cells plated on MEFs and cultured in ES medium. All groups contained three biological replicates and each biological replicate was repeated on two separate gene chips.
# Sample preparation, hybridization, and image analysis were performed according to the Affymetrix Human Genome U133 Plus 2.0 Array. Following normalization and a log transformation, data analysis was performed using OmniViz® software (MA) and […] (VizXLabs, WA). Significant differences in gene expression between the samples were evaluated using analysis of variance and an F-test with adjusted P-value (Benjamini and
# Hochberg correction) of ≦b 0.05. Only genes with a present call in at least one group were included in the analysis.
substance,measurement,setting,value
Activin A: a member of the TGFβ superfamily; R&D Systems; Group 2 = Activin A (100 ng/ml),"log intensity, nudix (nucleoside diphosphate linked moiety X)-type motif 4",on MATRIGEL,2.095
same,"log intensity, olfactory receptor, family 52, subfamily A, member 1 (OR52A1)",on MATRIGEL,−0.3096
same,"log intensity, oxoglutarate dehydrogenase (lipoamide) (OGDH)",on MATRIGEL,−0.03259
same,"log intensity, partial LHX9 gene for LIM-homeobox 9, 3UTR",on MATRIGEL,−2.2486
same,"log intensity, partial mRNA for putative nuclear factor",on MATRIGEL,1.552
same,"log intensity, phosphatidylinositol-4-phosphate 5-kinase, type I, beta (PIP5K1B)",on MATRIGEL,1.349
same,"log intensity, phosphofructokinase, liver (PFKL)",on MATRIGEL,2.039
same,"log intensity, pilin-like transcription factor (PILB)",on MATRIGEL,3.145
same,"log intensity, pleiomorphic adenoma gene-like 1",on MATRIGEL,−0.6468
same,"log intensity, plexin A2",on MATRIGEL,0.9305
same,"log intensity, polycythemia rubra vera 1; cell surface receptor (PRV1)",on MATRIGEL,−1.196
same,"log intensity, porcupine (MG61)",on MATRIGEL,1.518
same,"log intensity, protease, serine, 4 (trypsin 4, brain)",on MATRIGEL,−0.3456
same,"log intensity, protein S (alpha) (PROS1)",on MATRIGEL,0.5776
same,"log intensity, protocadherin 10",on MATRIGEL,1.767
same,"log intensity, putative 47 kDa protein (r448)",on MATRIGEL,−0.1239
same,"log intensity, putative 47 kDa protein (r770)",on MATRIGEL,0.1565
same,"log intensity, putative sterol reductase SR-1 (TM7SF2)",on MATRIGEL,1.669
same,"log intensity, ras homolog gene family, member B",on MATRIGEL,−0.1231
same,"log intensity, receptor tyrosine kinase-like orphan receptor 2 (ROR2)",on MATRIGEL,1.533
same,"log intensity, regulator of G protein signalling 5 (RGS5)",on MATRIGEL,3.0091
same,"log intensity, ret finger protein-like 2 (RFPL2)",on MATRIGEL,−2.155
same,"log intensity, secreted apoptosis related protein 2 (SARP2)",on MATRIGEL,3.184
same,"log intensity, secreted frizzled-related protein 1",on MATRIGEL,1.649
same,"log intensity, sialyltransferase (STHM)",on MATRIGEL,−0.6871
same,"log intensity, signal transducer and activator of transcription 3 (acute-phase response factor)",on MATRIGEL,−0.8373
same,"log intensity, singed (Drosophila)-like (sea urchin fascin homolog like) (SNL)",on MATRIGEL,4.233
same,"log intensity, sodium dependent phosphate transporter isoform NaPi-IIb",on MATRIGEL,−0.3971
same,"log intensity, solute carrier (SLC25A18)",on MATRIGEL,0.4037
same,"log intensity, solute carrier family 9 (sodiumhydrogen exchanger), isoform 5 (SLC9A5)",on MATRIGEL,0.04749
same,"log intensity, stanniocalcin 1 (STC1), mRNA",on MATRIGEL,2.394
same,"log intensity, stanniocalcin 1 (r1113)",on MATRIGEL,2.487
same,"log intensity, testican 3 (HSAJ1454)",on MATRIGEL,−2.812
same,"log intensity, testis enhanced gene transcript (BAX inhibitor 1)",on MATRIGEL,−0.6952
same,"log intensity, thyrotropin-releasing hormone (TRH)",on MATRIGEL,−1.657
same,"log intensity, transcription factor 2, hepatic; LF-B3; variant hepatic nuclear factor (TCF2), transcript variant a",on MATRIGEL,−1.125
same,"log intensity, transcriptional activator of the c-fos promoter (CROC4)",on MATRIGEL,0.6664
same,"log intensity, transmembrane tyrosine kinase mRNA",on MATRIGEL,−0.006089
same,"log intensity, tropomodulin, clone MGC: 3643",on MATRIGEL,0.3488
same,"log intensity, tryptase, alpha",on MATRIGEL,2.991
same,"log intensity, tudor repeat associator with PCTAIRE 2",on MATRIGEL,2.158
same,"log intensity, tyrosine 3-monooxygenasetryptophan 5-monooxygenase activation protein, eta polypeptide (r705)",on MATRIGEL,2.985
same,"log intensity, tyrosine 3-monooxygenasetryptophan 5-monooxygenase activation protein, eta polypeptide (r966)",on MATRIGEL,3.483
same,"log intensity, AD036 mRNA",on MEFS,1.603
same,"log intensity, ADP-ribosylation factor 4-like (ARF4L)",on MEFS,4.48
same,"log intensity, BACE mRNA for beta-site APP cleaving enzyme I-476",on MEFS,1.446
same,"log intensity, BTB (POZ) domain containing 2 (BTBD2)",on MEFS,2.325
same,"log intensity, CXCR4 gene encoding receptor CXCR4",on MEFS,6.361
same,"log intensity, Cluster Incl. AB002344: Human mRNA for KIAA0346 gene (r901)",on MEFS,3.478
same,"log intensity, Cluster Incl. AB002344: Human mRNA for KIAA0346 gene (r941)",on MEFS,3.317
same,"log intensity, Cluster Incl. L37033: Human FK-506 binding protein homologue (FKBP38)",on MEFS,1.661
same,"log intensity, Cluster Incl. N80935: zb07g06.s1 Homo sapiens cDNA",on MEFS,2.666
same,"log intensity, ESTs (r403)",on MEFS,2.715
same,"log intensity, ESTs (r404)",on MEFS,2.276
same,"log intensity, ESTs (r405)",on MEFS,−1.711
same,"log intensity, ESTs (r442)",on MEFS,5.906
same,"log intensity, ESTs (r453)",on MEFS,−2.153
same,"log intensity, ESTs (r473)",on MEFS,0.8364
same,"log intensity, ESTs (r491)",on MEFS,−0.4453
same,"log intensity, ESTs (r522)",on MEFS,2.214
same,"log intensity, ESTs (r523)",on MEFS,0.05049
same,"log intensity, ESTs (r524)",on MEFS,2.399
same,"log intensity, ESTs (r556)",on MEFS,0.7383
same,"log intensity, ESTs (r567)",on MEFS,1.124
same,"log intensity, ESTs (r627)",on MEFS,3.973
same,"log intensity, ESTs (r741)",on MEFS,2.614
same,"log intensity, ESTs (r745)",on MEFS,3.836
same,"log intensity, ESTs (r766)",on MEFS,2.128
same,"log intensity, ESTs (r767)",on MEFS,−0.3504
same,"log intensity, ESTs (r891)",on MEFS,−0.1307
same,"log intensity, ESTs (r916)",on MEFS,1.395
same,"log intensity, ESTs (r938)",on MEFS,−0.6132
same,"log intensity, ESTs (r980)",on MEFS,0.5547
same,"log intensity, ESTs (r1021)",on MEFS,0.6436
same,"log intensity, ESTs (r1022)",on MEFS,3.471
same,"log intensity, ESTs (r1059)",on MEFS,2.077
same,"log intensity, ESTs (r1060)",on MEFS,2.463
same,"log intensity, ESTs (r1110)",on MEFS,3.792
same,"log intensity, ESTs (r1115)",on MEFS,2.521
same,"log intensity, ESTs, Highly similar to AF229172 1 class III myosin",on MEFS,0.002417
same,"log intensity, ESTs, Moderately similar to ALU4_HUMAN ALU SUBFAMILY SB2",on MEFS,−0.9837
same,"log intensity, ESTs, Moderately similar to JC4969 pig-c protein",on MEFS,−1.045
same,"log intensity, ESTs, Moderately similar to NFY-C",on MEFS,−0.2427
same,"log intensity, ESTs, Weakly similar to A46302 PTB-associated splicing factor, long form",on MEFS,2.695
same,"log intensity, ESTs, Weakly similar to ALU8_HUMAN ALU SUBFAMILY SX",on MEFS,4.578
same,"log intensity, ESTs, Weakly similar to ALUC_HUMAN",on MEFS,2.7193
same,"log intensity, ESTs, Weakly similar to ALUF_HUMAN",on MEFS,0.5876
same,"log intensity, ESTs, Weakly similar to KIAA1330 protein",on MEFS,1.182
same,"log intensity, ESTs, Weakly similar to KIAA1399 protein",on MEFS,2.8
same,"log intensity, ESTs, Weakly similar to T32252 hypothetical protein T15B7.2",on MEFS,3.333
same,"log intensity, ESTs, Weakly similar to Z132_HUMAN ZINC FINGER PROTEIN 13",on MEFS,2.122
same,"log intensity, F37Esophageal cancer-related gene-coding leucine-zipper motif (FEZ1)",on MEFS,2.104
same,"log intensity, FLICE-like inhibitory protein short form",on MEFS,4.928
same,"log intensity, GS1999full mRNA",on MEFS,0.8499
same,"log intensity, H1 histone family, member X (H1FX)",on MEFS,4.51
same,"log intensity, H2A histone family, member X",on MEFS,−0.04057
same,"log intensity, H. sapiens skeletal embryonic myosin light chain 1 (MLC1)",on MEFS,2.36
same,"log intensity, HT016 mRNA",on MEFS,2.452
same,"log intensity, Homo sapiens nudix (nucleoside diphosphate linked moiety X)-type motif (r1198)",on MEFS,6.428
same,"log intensity, Human DNA sequence from clone RP4-781L3 on chromosome 1p34.3-36.11",on MEFS,4.439
same,"log intensity, Human DNA sequence from clone RP11-446H13 on chromosome 10",on MEFS,2.12
same,"log intensity, Human MLC1emb gene for embryonic myosin alkaline light chain, promoter and exon 1",on MEFS,4.04
same,"log intensity, Human clone 23826 mRNA sequence",on MEFS,1.443
same,"log intensity, Human embryonic myosin alkali light chain (MLC1)",on MEFS,4.115
same,"log intensity, Human extracellular matrix protein 1 (ECM1)",on MEFS,1.376
same,"log intensity, Human mRNA for pro-alpha 1 (II) collagen 3end C-term.",on MEFS,2.157
same,"log intensity, Human rho GDI mRNA",on MEFS,−0.6515
same,"log intensity, KIAA0127 gene product (KIAA0127)",on MEFS,3.002
same,"log intensity, KIAA0346 protein",on MEFS,1.415
same,"log intensity, KIAA0418 gene product",on MEFS,0.03438
same,"log intensity, KIAA0761 protein",on MEFS,1.059
same,"log intensity, KIAA0882 protein",on MEFS,4.675
same,"log intensity, KIAA0918 protein",on MEFS,−0.575
same,"log intensity, KIAA1415 protein",on MEFS,1.743
same,"log intensity, KIAA1511 protein",on MEFS,1.575
same,"log intensity, Kruppel-like factor 8 (KLF8)",on MEFS,1.639
same,"log intensity, LIM homeobox protein 1 (LHX1)",on MEFS,0.08556
same,"log intensity, LYST-interacting protein LIP3",on MEFS,−0.3125
same,"log intensity, MAD (mothers against decapentaplegic, Drosophila) homolog 6 (MADH6)",on MEFS,3.5309
same,"log intensity, MYC-associated zinc finger protein (purine-binding transcription factor) (MAZ)",on MEFS,0.5113
same,"log intensity, Novel human mRNA from chromosome 22",on MEFS,3.058
same,"log intensity, PNAS-145 mRNA",on MEFS,4.2868
same,"log intensity, PRO1957 mRNA",on MEFS,4.227
same,"log intensity, PTPRF interacting protein, binding protein 2 (liprin beta 2)",on MEFS,2.773
same,"log intensity, Pig10 (PIG10)",on MEFS,1.098
same,"log intensity, SG2NA beta isoform",on MEFS,−1.534
same,"log intensity, Similar to B9 protein, clone MGC: 11339",on MEFS,2.292
same,"log intensity, Similar to RIKEN cDNA C330013D18 gene, clone MGC: 11226",on MEFS,1.427
same,"log intensity, Similar to lipase protein, clone MGC: 2843",on MEFS,0.9617
same,"log intensity, X75208 H. sapiens HEK2 mRNA for protein tyrosine kinase receptor",on MEFS,1.082
same,"log intensity, adaptor-related protein complex 3, beta 2 subunit (AP3B2)",on MEFS,1.074
same,"log intensity, adenylate cyclase 8 (brain) (ADCY8)",on MEFS,−2.261
same,"log intensity, alpha 2,8-sialyltransferase",on MEFS,1.055
same,"log intensity, aminolevulinate, delta-, dehydratase, clone MGC: 5057",on MEFS,2.769
same,"log intensity, annexin A6 (ANXA6), transcript variant 1",on MEFS,4.5
same,"log intensity, apolipoprotein A-II (APOA2)",on MEFS,4.759
same,"log intensity, apolipoprotein C-I (APOC1)",on MEFS,5.51
same,"log intensity, arrestin, beta 1 (ARRB1), transcript variant 1",on MEFS,−0.4092
